# Source: PMC5186412 (Future medicinal chemistry, 2015)
# Numbered stars: 1 amine (or outer) side, 2 acyl side, 3 side chain; on linkers, the order of the positions; unused ones are H or OH. Bridge positions count the residues as written; N and C are the ends. Square brackets hold non-standard residues; d marks the D form. Peptide text beside a SMILES is read from it. * marks the point of attachment. dLeu(3R-OH) = CC(C)[C@@H](O[*:3])[C@@H](N[*:1])C(=O)[*:2]; Gln(3S,4R-Me2) = C[C@H]([C@H](N)C(=O)O)[C@@H](C)C(N)=O; dTyr(βR-OMe) = CO[C@H](c1ccc(O)cc1)[C@@H](N)C(=O)O; Pip(4S-Cl) = O=C(O)[C@@H]1C[C@@H](Cl)CCN1; X6 = CCC(C)/C=C(C)/C=C\C(O)C(C)(O)C(=O)*; Abu(3R-NH2) = C[C@@H](N)[C@H](N)C(=O)O; NMeT = CN[C@H](C(=O)O)[C@@H](C)O
# Details: PAMPA
row,Compound,passive permeability (in words)
1,tentoxin,measurable permeability
2,"CCC(C)/C=C(C)/C=C\C(O)C(C)(O)C(=O)NCC(=O)N[C@H](C(=O)N[C@H](C(=O)N[C@H](C(=O)N[C@H]1C(=O)N[C@H](COC)C(=O)NCC(=O)N[C@@H](C)C(=O)N(C)[C@@H]([C@@H](C)O)C(=O)N[C@H]([C@H](OC)c2ccc(O)cc2)C(=O)N2CC[C@H](Cl)C[C@H]2C(=O)O[C@@H]1C(C)C)[C@@H](C)[C@@H](C)C(N)=O)[C@@H](C)N)[C@@H](C)O (stereo partly drawn) [mirabamide C] (X6-GT[Abu(3R-NH2)][Gln(3S,4R-Me2)][dLeu(3R-OH)][dS](Me)GA[NMeT][dTyr(βR-OMe)][Pip(4S-Cl)]; ester 5-C)",poor passive permeability
3,destruxin A,moderate permeability
4,destruxin B,moderate permeability
5,CC[C@@H](C)[C@@H]1NC(=O)CNC(=O)[C@@H](C)N(C)C(=O)[C@H](C(C)C)NC(=O)[C@H]([C@@H](C)O)N(C)C(=O)[C@H](C(C)C)NC(=O)[C@H]([C@@H](C)O)N(C)C(=O)[C@H](C(C)C)NC(=O)CNC(=O)[C@@H](Cc2ccccc2)N(C)C(=O)[C@H](C(C)C)NC(=O)[C@H](CO)NC(=O)[C@H](C(C)C)N(C)C(=O)[C@H](CO)N(C)C1=O [verrucamide B],poor passive permeability

# Same assay, conditions: PAMPA, 16 h
row,Compound,logPe
1,CC(C)[C@H]1C(=O)N(C)[C@@H](C)C(=O)NCCC[C@H](NC(=O)/C=C/C=C/C=O)C(=O)N1C [sclerotiotide F],below the PAMPA assay’s detection limit
2,CC(C)[C@H]1C(=O)O[C@H](C(C)C)C(=O)N(C)[C@@H](C(C)C)C(=O)O[C@H](C(C)C)C(=O)N(C)[C@@H](C(C)C)C(=O)O[C@H](C(C)C)C(=O)N1C [Enniatin B],−4.7
3,desmethyldestruxin B,−6.67
4,CC[C@H](C)[C@@H]1NC(=O)c2csc(n2)[C@@H](C)NC(=O)[C@H]2N=C(O[C@@H]2C)[C@H](C(C)C)NC(=O)c2csc(n2)[C@@H](Cc2ccccc2)NC(=O)[C@H]2N=C1O[C@@H]2C [Patellamide C],−4.7
5,destruxin E2 chlorohydrin,−7.35
6,destruxin B,−5.29
